Measured values taken from paper PMC10999085, “Synthesis, anticancer evaluation, molecular docking and ADME study of novel pyrido[4ʹ,3ʹ:3,4]pyrazolo[1,5-a]pyrimidines as potential tropomyosin receptor kinase A (TrKA) inhibitors” (BMC Chemistry, 2024).
pIC50: −log10 of the molar value.

Key:
[1] = test system: HCT-116 cell line; test: MTT assay, HCT-116 cell line; assay type: cell-based, human; details: MTT, 24 hr treatment, in % (unit assumed); for Cytotoxicity at 5 µg/l: HCT116, 5 µg/l; for Cytotoxicity at 10 µg/l: HCT116, 10 µg/l; for Cytotoxicity at 20 µg/l: HCT116, 20 µg/l
Procedure: (§1) Determination of the inhibitory effects of compounds on cell growth was performed through the MTT assay. This colorimetric assay is based on the conversion of the yellow tetrazolium bromide (MTT) to a purple formazan derivative by mitochondrial succinate dehydrogenase in viable cells. The protocol was discussed in details in Additional file 1.
(§2) Compounds 1, 4a,b, 7a–c, 7k, l, 9a–c, 14a, 15b, 16a–c were selected to be investigated against three human cancer cell lines MCF7, HepG2 and HCT116 cell lines using MTT assay using doxorubicin as the standard drug. Each point is the mean ± SD (standard deviation) of three independent experiments performed in triplicate, using the prism software program (integrated Graphpad software, version 3).
(§3) Cell lines were used to measure the cell growth effects of the compounds using the MTT assay. This colorimetric assay is depend on the conversion of the yellow tetrazolium bromide (MTT) to a purple formazan derivative by mitochondrial succinate dehydrogenase in living cells. Cell lines were cultured in RPMI-1640 medium supplemented with 10% fetal bovine serum. The antibiotics added were 100 units/ml penicillin and 100 µg/ml streptomycin at 37 °C in a 5% CO2 incubator. Cell lines were seeded in a 96-well plates at a density of 1.0x10^4 cells/well and cultured at 37 °C for 48 h under 5% CO2. After incubation, the cells were treated with different concentrations of compounds and incubated for 24 hr. After 24 hr of drug treatment, 20 µl of MTT solution at 5 mg/ml was added to each well and incubated for 4 hr. 100 µl of dimethyl sulfoxide (DMSO) was added into each well to dissolve the purple formazan formed. The colorimetric assay was measured and recorded at absorbance of 570 nm using a plate reader (EXL 800, USA). Relative cell viability (%) was calculated as (A570 of treated sample/A570 of untreated sample) x 100 [36, 37].

[2] = test system: MCF7 cell line; test: MTT assay, MCF7 cell line; assay type: cell-based, human; details: 24 hr treatment, in % (unit assumed); for Cytotoxicity at 5 µg/l: MCF7, 5 µg/l; for Cytotoxicity at 10 µg/l: MCF7, 10 µg/l; for Cytotoxicity at 20 µg/l: MCF7, 20 µg/l
Procedure: as §1, §2, §3

[3] = test system: HepG2 cell line; test: MTT assay, HepG2 cell line; assay type: cell-based, human; details: MTT, 24 hr treatment, in % (unit assumed); for Cytotoxicity at 5 µg/l: HepG2, 5 µg/l; for Cytotoxicity at 10 µg/l: HepG2, 10 µg/l; for Cytotoxicity at 20 µg/l: HepG2, 20 µg/l
Procedure: as §1, §2, §3

[4] = molecular target: T1, Tropomyosin receptor kinase A (TrKA) (Homo sapiens, UniProt P04629); test: Tropomyosin receptor kinase A (TrKA) inhibitory assay (Kinase-Glo MAX kit); assay type: biochemical; details: in vitro kinase assay, recombinant TrkA
T1 construct: purchased
Description: (§4) The TrkA assay Kit is designed to measure TrkA activity for screening and profiling applications using Kinase-Glo® MAX as a detection reagent. The TrkA Assay Kit comes in a convenient 96-well format, with enough purified recombinant TrkA enzyme, TrkA substrate, ATP and kinase assay buffer for 100 enzyme reactions. The method was discussed in details in the ESI.
as §4, with “reactions.” for “reactions. The method was discussed in details in the ESI.”
The assay protocol: all samples and controls should be tested in duplicate. Dissolve 5x Kinase Assay Buffer 1, ATP, and PTK Substrate Poly (Glu:Tyr 4:1) (10 mg/ml). 2). The master mixture (25 μl per well) was prepared by N wells x (6 μl 5x Kinase Assay Buffer 1 + 1 μl ATP (500 μM) + 1 μl PTK Substrate Poly (Glu:Tyr 4:1) (10mg/ml) + 17 μl water). Add 5 μl of Inhibitor solution of each well labeled as “Test Inhibitor”. For the “Positive Control" and “Blank”, add 5 μl of the same solution without inhibitor (Inhibitor buffer). Prepare 3 ml of 1x Kinase assay buffer 1 by mixing 600 μl of 5x Kinase assay buffer 1 with 2400 μl water 3 ml of 1x Kinase assay buffer is sufficient for 100 reactions. To the wells designated as "Blank", add 20 μl of 1x Kinase assay buffer 1and thaw TrkA enzyme on ice. Upon first thaw, briefly spin tube containing enzyme to recover full content of the tube. Calculate the amount of TrkA required for the assay and dilute enzyme to 5 ng/μl with 1x Kinase assay buffer. Store remaining undiluted enzyme in aliquots at -80°C. Then initiate reaction by adding 20 μl of diluted TrkA enzyme to the wells designated “Positive Control” and "Test Inhibitor Control". Incubate at 30°C for 45minutes and thaw Kinase-Glo Max reagent. After the 45 minute reaction, add 50 μl of Kinase-Glo Max reagent to each well. Cover plate with aluminum foil and incubate the plate at room temperature for 15 minutes. Immediately read sample in a luminometer or microtiter-plate capable of reading chemiluminescence. “Blank” value is subtracted from all readings.

T1 sequence (P04629 33-796): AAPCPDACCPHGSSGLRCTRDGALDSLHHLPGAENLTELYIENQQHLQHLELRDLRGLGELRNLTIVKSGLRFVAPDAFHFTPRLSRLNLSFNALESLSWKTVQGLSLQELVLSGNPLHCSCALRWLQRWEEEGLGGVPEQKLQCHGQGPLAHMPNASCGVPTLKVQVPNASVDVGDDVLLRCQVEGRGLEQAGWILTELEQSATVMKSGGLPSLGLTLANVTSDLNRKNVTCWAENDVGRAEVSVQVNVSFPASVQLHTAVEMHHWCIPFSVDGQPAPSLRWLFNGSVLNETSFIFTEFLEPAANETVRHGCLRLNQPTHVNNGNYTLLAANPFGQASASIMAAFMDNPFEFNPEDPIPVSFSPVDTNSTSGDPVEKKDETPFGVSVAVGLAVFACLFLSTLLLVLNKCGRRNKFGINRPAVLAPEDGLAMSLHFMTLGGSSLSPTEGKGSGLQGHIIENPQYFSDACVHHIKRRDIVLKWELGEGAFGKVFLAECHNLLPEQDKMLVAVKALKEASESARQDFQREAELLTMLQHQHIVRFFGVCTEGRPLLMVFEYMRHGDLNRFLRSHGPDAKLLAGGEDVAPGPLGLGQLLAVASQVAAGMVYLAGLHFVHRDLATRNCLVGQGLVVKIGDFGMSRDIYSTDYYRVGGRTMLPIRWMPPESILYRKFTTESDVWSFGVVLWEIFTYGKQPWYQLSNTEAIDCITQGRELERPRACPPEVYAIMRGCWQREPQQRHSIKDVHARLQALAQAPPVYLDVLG

Row | Compound | melting point [°C] | pIC50 [4] | Cytotoxicity at 5 µg/l [1] | Cytotoxicity at 10 µg/l [1] | Cytotoxicity at 20 µg/l [1] | Cytotoxicity at 5 µg/l [2] | Cytotoxicity at 10 µg/l [2] | Cytotoxicity at 20 µg/l [2] | Cytotoxicity at 5 µg/l [3] | Cytotoxicity at 10 µg/l [3] | Cytotoxicity at 20 µg/l [3]
1 | COc1ccc(C=C2C(=O)NC(=O)c3c2nn2c(-c4ccccc4)cc(-c4ccccc4)nc32)cc1 [Compound 7l] | 315 | – | 57.14 | 61.58 | 91.59 | 40.19 | 52.28 | 97.26 | 40.25 | 71.84 | 96.62
2 | Cc1cc(C)n2nc3c(c2n1)C(=O)NC(=O)C3=NNc1ccccc1 [Compound 9a, 2,4-Dimethyl-7-(2-phenylhydrazono)pyrido[4ʹ,3ʹ:3,4]pyrazolo[1,5-a]pyrimidine-8,10(7H,9H)-dione] | 300 | – | 34.38 | 55.47 | 65.98 | 36.10 | 49.11 | 75.34 | 13.11 | 49.16 | 79.17
3 | Cc1cc(O)n2nc3c(c2n1)C(=O)NC(=O)C3 [Compound 14a, 4-Hydroxy-2-methylpyrido[4ʹ,3ʹ:3,4]pyrazolo[1,5-a]pyrimidine-8,10(7H,9H)-dione] | > 360 | – | 28.84 | 55.79 | 58.72 | 25.14 | 48.62 | 77.19 | 11.39 | 40.75 | 83.75

Further lines, with some results ahead:

Row | melting point [°C] | pIC50 [4] | Compound | Cytotoxicity at 5 µg/l [1] | Cytotoxicity at 10 µg/l [1] | Cytotoxicity at 20 µg/l [1] | Cytotoxicity at 5 µg/l [2] | Cytotoxicity at 10 µg/l [2] | Cytotoxicity at 20 µg/l [2] | Cytotoxicity at 5 µg/l [3] | Cytotoxicity at 10 µg/l [3] | Cytotoxicity at 20 µg/l [3]
4 | 285 | – | Cc1ccc(NN=C2C(=O)NC(=O)c3c2nn2c(C)cc(C)nc32)cc1 [Compound 9b, 2,4-Dimethyl-7-(2-(p-tolyl)hydrazono)pyrido[4ʹ,3ʹ:3,4]pyrazolo[1,5-a]pyrimidine-8,10(7H,9H)-dione] | 22.09 | 40.50 | 59.80 | 33.82 | 51.19 | 72.13 | 8.46 | 33.81 | 73.11
5 | 305 | 6.36 | COc1ccc(N/N=C2\C(=O)NC(=O)c3c2nn2c(C)cc(C)nc32)cc1 [Compound 9c, 7-(2-(4-Methoxyphenyl)hydrazono)-2,4-dimethylpyrido[4ʹ,3ʹ:3,4]pyrazolo[1,5-a]pyri-midine-8,10(7H,9H)-dione] | 59.74 | 67.13 | 89.80 | 38.17 | 53.72 | 87.32 | 42.88 | 50.63 | 86.55
6 | 330 | – | Cc1ccc(NN=C2C(=O)NC(=O)c3c2nn2c(O)cc(C)nc32)cc1 [Compound 16b, 4-Hydroxy-2-methyl-7-(2-(p-tolyl)hydrazono)pyrido[4ʹ,3ʹ:3,4]pyrazolo[1,5-a]pyrimidine-8,10(7H,9H)-dione] | 23.18 | 52.73 | 85.28 | 54.13 | 55.27 | 80.56 | 18.01 | 42.54 | 50.18
